Laboratory results as given in patent publication US20170119683A1, “BIOPOLYMER-ENCAPSULATED GLYCOSYL TRANSFERASE INHIBITOR COMPOSITIONS AND METHODS FOR TREATING DIABETES AND CARDIAC INDICATIONS” (The Johns Hopkins University, priority 2014, published 2017).
“Also recorded” adds a separate entry of the source.

Tests used:
[1] = system: apoE -/- mice fed a high fat and high cholesterol (HFHC) diet; assay: aortic histopathology and ultrasound imaging, atherosclerosis in apoE -/- mice fed HFHC diet; type: in vivo; conditions: FIG. 2B
adipocytes = assay: TNF induced insulin resistance in adipocytes; type: cell-based; conditions: chronic exposure to low levels of TNF
From the text: Additionally, adipocytes were made insulin resistant by chronic exposure to low levels of tumor necrosis factor (TNF). […] This latter patient population is estimated at 10 million in the US alone.

[2] = system: cultured human arterial cell monolayer; assay: in vitro model of wounding in cultured arterial cell monolayer; type: cell-based
Apolipoprotein E-/- mice = assay: Example 6: ox-LDL, GalT-V and amyloid-β (ELISA, Western) in ApoE-/- mice fed HFHC diet; type: in vivo
Experimental: Testing of the impact of D-PDMP in a mouse AD model and quantification of biomarkers in such studies was performed in the following manner. […] These mice were fed either a normal diet (control) or a high-fat high-cholesterol (HFHC) diet. While a subset of the mice fed the high-fat diet was retained as a placebo group, others were treated with 5 mg/kg (mpk) or 10 mpk of the D-PDMP drug. After euthanizing these animals, tissue and blood samples were stored for further biochemical analysis. For the quantification of the biomarkers, […] (ELISA) was used. For the measurement of ox-LDL, mouse serum was coated onto the bottom of a well. […] A secondary antibody was administered to that attached specifically to the primary antibody. This secondary antibody presented an attached reporter, allowing amounts of ox-LDL could be quantified. A substrate was bound to the reporter and fluoresced. […] ELISA was also employed for quantifying levels of GalT-V and amyloid-β, using different target-specific antibodies.

[3] = native, not encapsulated
[4] = in vivo; cited from earlier work
[5] = in vivo
[6] = 5 mpk and 10 mpk by injection, not biopolymer-encapsulated

CCCCCCCCCC(=O)N[C@H](CN1CCOCC1)[C@H](O)c1ccccc1.Cl [D-PDMP, D-threo-1-phenyl-2-decanoylamino-3-morpholino-1-propanol]
returning aortic intima-media thickness of the ascending aorta to control levels [1]: equally efficacious
TNF induced impairment in insulin signaling (adipocytes): reversed
wound healing [2]: facilitated healing
levels of GalT-V (Apolipoprotein E-/- mice; [6]): dose-dependently decreased; also recorded: decreased levels
levels of ox-LDL (Apolipoprotein E-/- mice; [6]): dose-dependently decreased; also recorded: decreased levels
amyloid-β levels (Apolipoprotein E-/- mice; 5 mpk and 10 mpk by injection, not biopolymer-encapsulated, brain tissue): dose-dependently decreased; also recorded: reduction
levels of atherosclerosis and Alzheimer's disease biomarkers (Apolipoprotein E-/- mice; ApoE -/- model mice): markedly reduced
residence time in the body of the mice [3]: about an hour
half-life [4]: approximately 52 minutes
toxicity [5]: no toxicity
